Laboratory results published in patent US5340806A, “Composition containing organogermanium compound and immunity adjusting agent comprising the composition” (Sanwa Kagaku Kenkyusho Co., Ltd., priority 1984, dated 1994).
Like-named read-outs stand apart in the source and are kept apart here.

Legend:
Format in all cases: in vivo, human patients
[1] = test system: chronic non A non B hepatitis; assay: Chronic non A non B hepatitis, 15/30/60 mg/day, 12 weeks (Table 5B)
Description: (§1) Search on utility or effectiveness of the organogermanium compound on patients who are infected with chronic B hepatitis, or with non A non B hepatitis, and show "positive" to HBe antigen as well as a preferable amount of dose thereof.
(§2) The amount of dose has been set as follows, by taking the results given in In Vivo Utilization Example 1 into consideration.
(a) 60 mg/day/body showing most preferable data in effectiveness,
(b) 30 mg/day/body showing effectiveness in some Experiments, and
(c) 15 mg/day/body (for taking control data).
(§3) Experimental period of time was set for 12 weeks.
(§4) (a) Examination of liver functions (GOT, GPT, total bilirubin, LDH, y-GTP, and y-globulin), and
(§5) (b) Examination with use of HBV marker (HBe-Ag).

[2] = test system: chronic non A non B hepatitis; settings: 60 mg/day, 12 weeks
Text: Utility or effectiveness of the organogermanium compound is checked in comparison with that of a placebo as a control. Interferons have widely been accepted as drugs for curing chronic hepatitis, but those are injectionally dosed. On the contrary, the organogermanium compound is orally dosed. In recent years, some oral medicines for curing liver diseases have been developed and the effectiveness thereof has been evaluated by using a placebo as its control. Therefore, the "placebo" is selected as the control for the evaluation of the organogermanium compound in question. (b) To patients with non A non B hepatitis: 60 mg/day/body. Experiment period of time was set for 16 weeks for the patients with chronic B hepatitis and for 12 weeks for the patients with non A and non B hepatitis.

chronic B hepatitis = test system: chronic B hepatitis
Description: as §1, §2
(a) 30 mg/day/body showing most preferable data in effectiveness, and
(b) 15 mg/day/body (half amount).
as §3, §4, §5

Substance: 3-oxygermylpropionic acid [Compound No. 1]
- Effectiveness (slight or more) ([1]; 15 mg/day): 33%
- General judgement: Improvement (slight or more) ([1]; 15 mg/day): 36%
- Safety (quite) ([1]; 15 mg/day): 91%
- Side effect ([1]; 15 mg/day): 9.4%
- Total bilirubin change ([1]; 15 mg/day, 12 weeks): .dwnarw. *
- γ-GPT change ([1]; 15 mg/day, 12 weeks): .dwnarw. +
- Effectiveness (slight or more) ([1]; 30 mg/day): 36%
- General judgement: Improvement (slight or more) ([1]; 30 mg/day): 37%
- Safety (quite) ([1]; 30 mg/day): 94%
- Side effect ([1]; 30 mg/day): 5.6%
- Effectiveness (slight or more) ([1]; 60 mg/day): 55%
- General judgement: Improvement (slight or more) ([1]; 60 mg/day): 57%
- Safety (quite) ([1]; 60 mg/day): 95%
- Side effect ([1]; 60 mg/day): 5.4%
- GOT change ([1]; 60 mg/day, 12 weeks): .dwnarw. *
- GPT change ([1]; 60 mg/day, 12 weeks): .dwnarw. **
- Total bilirubin change ([1]; 60 mg/day, 12 weeks): .dwnarw. *
- γ-GPT change ([1]; 60 mg/day, 12 weeks): .dwnarw. *
- γ-Globulin change ([1]; 60 mg/day, 12 weeks): .dwnarw. *
- A/G change [2]: .uparw. +
- GOT change [2]: .dwnarw. ***
- GOT, test versus placebo [2]: ** (S>P)
- GPT change [2]: .dwnarw. ***
- GPT, test versus placebo [2]: ** (S>P)
- Serum albumin change [2]: .dwnarw. **
- γ-GPT change [2]: .dwnarw. *
- γ-GPT, test versus placebo [2]: * (S>P)
- Improvement (objective) ([2]; placebo 10%): 8%
- Improvement (sec. judgement) ([2]; placebo 26%): 51%
- Effectiveness (slight or more) ([2]; placebo 29%): 50%
- Improvement (Jud. by Doc.) ([2]; placebo 29%): 56%
- Improvement (general) ([2]; placebo 32%): 59%
- Improvement (self) ([2]; placebo 48%): 50%
- Effectiveness (slight or more) (chronic B hepatitis; 15 mg/day): 38%
- General judgement: Improvement (slight or more) (chronic B hepatitis; 15 mg/day): 36%
- Effectiveness (slight or more) (chronic B hepatitis; 30 mg/day): 60%
- General judgement: Improvement (slight or more) (chronic B hepatitis; 30 mg/day): 62%
- GOT change (chronic B hepatitis; 30 mg/day, 12 weeks): .dwnarw. ***
- GPT change (chronic B hepatitis; 30 mg/day, 12 weeks): .dwnarw. ***
- HBe-Ag (log conversion) change (chronic B hepatitis; 30 mg/day, 12 weeks): .dwnarw. +
- LDH change (chronic B hepatitis; 30 mg/day, 12 weeks): .dwnarw. *
